Data from publication PMC12314110, “Evaluation of Potential Effects of CYP3A Inhibition and CYP3A Induction on the Pharmacokinetics of Fruquintinib in Healthy Subjects” (Clinical Pharmacology in Drug Development, 2025).

How the values were obtained:
[1] = Part A: PK of single-dose fruquintinib alone and with itraconazole (CYP3A inhibition); format: in vivo, human; conditions: for AUC(0-inf) / AUC(0-t) / Tmax / Cmax / half-life / t1/2: fruquintinib in plasma; for AUC(0-inf) / AUC(0-t) / Tmax / Cmax / half-life / t1/2 / CL/F (apparent oral clearance): Part A, n = 14; for AUC(0-inf) / AUC(0-t) / Cmax / half-life / t1/2 / CL/F (apparent oral clearance): arithmetic mean (SD); for Tmax: median (minimum‐maximum); for half-life: plasma; for CL/F (apparent oral clearance): fruquintinib
From the text: (§1) This was a single‐center, open‐label, 2‐part (Part A and Part B), 2‐period, fixed‐sequence study conducted in healthy male and female subjects. Parts A and B evaluated the effect of the CYP3A inhibitor itraconazole and the CYP3A inducer rifampin on the PK profile of fruquintinib, respectively. Each part consisted of a screening phase, a treatment phase (Period 1 and Period 2), and an end‐of‐study (EOS) phase. Screening occurred within 21 days before the first study drug administration. There was at least a 14‐day washout of fruquintinib between treatment periods. PK samples were collected before dosing and over 168 hours following the fruquintinib dose in Part A (with itraconazole) and Part B (with rifampin). Part A and Part B were enrolled independently.
In Part A, subjects were administered fruquintinib alone in Treatment Period 1 and in combination with itraconazole in Treatment Period 2. Study Day 1 was considered the start of Treatment Period 1, and Study Day 15 was considered the start of Treatment Period 2. On Study Day 1, subjects received a single dose of fruquintinib 5 mg by mouth under fasted conditions (subjects fasted for at least 10 hours before fruquintinib dosing and 4 hours after), and on Study Day 19 subjects received a second single dose of fruquintinib 5 mg by mouth under fasted conditions, alongside itraconazole. On Study Day 15, subjects began a regimen of itraconazole 200 mg by mouth twice a day, followed by once daily dosing on Study Days 16‐25. A dose of 200 mg was selected, with a loading dose as part of a 5‐day lead‐in (twice daily for 1 day, once daily for 4 days) to achieve appropriate inhibition of CYP3A before dosing with fruquintinib.[10] Once‐daily dosing of itraconazole for an additional 5 days throughout the fruquintinib PK sampling period was continued to maintain CYP3A inhibition.[11]
As itraconazole oral bioavailability is maximal when the capsules are taken immediately after a full meal,[12] it was administered under fed conditions except when coadministered with fruquintinib on Study Day 19. Itraconazole doses were administered 30 minutes after the start of breakfast on Study Days 15‐18 and Study Days 20‐25. On Study Day 19, subjects received both treatments under fasted conditions, and itraconazole was administered 1 hour before administration of a single dose of fruquintinib 5 mg by mouth. Subjects were discharged after completion of EOS procedures on Study Day 26 or at early withdrawal.
(§2) Blood samples for determination of fruquintinib and metabolite M11 plasma concentrations were collected before dosing and at 0.5, 1, 1.5, 2, 3, 4, 6, 8, 12, 24, 36, 48, 72, 96, 120, 144, and 168 hours after fruquintinib dosing. Plasma samples were analyzed by LabCorp Bioanalytical (Indianapolis, IN) using a validated liquid chromatography with tandem mass spectrometry assay method with an analytical range of 1.00 ng/mL (lower limit of quantitation) to 750 ng/mL (upper limit of quantitation) for both fruquintinib and M11.[6] Interrun variability was 6.3% or less and 13.8% or less for fruquintinib and M11, respectively. Quality control samples at 4 concentrations (3, 30, 300, and 600 ng/mL) were assayed along with study samples, and the bias quality control sample concentrations deviated by ±2.0% and ±2.7% from the nominal concentrations for fruquintinib and M11, respectively.
PK parameters were determined by noncompartmental analysis and included maximum plasma concentration (Cmax); time to reach Cmax (tmax); area under the plasma concentration‐time curve (AUC) from time 0 to the time of the last measurable concentration (AUC0‐t); AUC from time 0 to infinity (AUC0‐inf); half‐life (t1/2); and the metabolite‐to‐parent ratios for Cmax, AUC0‐t, and AUC0‐inf. Apparent oral clearance and volume of distribution were also estimated for fruquintinib. […]

[2] = Part B: PK of single-dose fruquintinib alone and with rifampin (CYP3A induction); format: in vivo, human; conditions: for AUC(0-inf) / AUC(0-t) / Cmax / half-life / Tmax / t1/2: fruquintinib in plasma; for AUC(0-inf) / AUC(0-t) / Cmax / half-life / Tmax / t1/2 / CL/F (apparent oral clearance): Part B; for AUC(0-inf) / AUC(0-t) / Cmax / half-life / t1/2 / CL/F (apparent oral clearance): arithmetic mean (SD); for half-life / Tmax: plasma; for Tmax: median (minimum‐maximum), read-out: tmax; for CL/F (apparent oral clearance): fruquintinib
From the text: as §1
In Part B, subjects were administered fruquintinib alone in Treatment Period 1 and in combination with rifampin in Treatment Period 2. Study Day 1 was considered as the start of Treatment Period 1, and Study Day 8 was considered as the start of Treatment Period 2. On Study Day 1, a single dose of fruquintinib 5 mg by mouth was administered under fasted conditions, and on Study Day 15, a single dose of fruquintinib 5 mg was administered by mouth under fasted conditions alongside rifampin. Starting on Study Day 8, rifampin 600 mg was dosed by mouth once daily for 14 consecutive days, 7 days before fruquintinib dosing and 6 days after fruquintinib dosing, to ensure that induction was maintained throughout the PK sampling period. Subjects therefore received rifampin from Study Day 8 to Study Day 21. Absorption of rifampin is reduced by approximately 30% when the drug is ingested with food.[13] Therefore, rifampin was administered at least 1 hour before breakfast when given alone and under fasted conditions when administered with fruquintinib. Breakfast was given at least 1 hour after the rifampin doses on Study Days 8‐14 and Study Days 16‐21. On Study Day 15, subjects received both treatments under fasted conditions, and rifampin was administered 1hour before administration of a single dose of fruquintinib 5 mg by mouth. Subjects were discharged after completion of EOS procedures on Study Day 22 or at early withdrawal.
as §2
PK parameters were determined by noncompartmental analysis and included maximum plasma concentration (Cmax); time to reach Cmax (tmax); area under the plasma concentration‐time curve (AUC) from time 0 to the time of the last measurable concentration (AUC0‐t); AUC from time 0 to infinity (AUC0‐inf); half‐life (t1/2); and the metabolite‐to‐parent ratios for Cmax, AUC0‐t, and AUC0‐inf. Apparent oral clearance and volume of distribution were also estimated for fruquintinib.
For Part A, the effect of itraconazole based on the PK parameters of fruquintinib was evaluated using a linear mixed‐effect model with treatment (ie, fruquintinib with itraconazole [test] and fruquintinib alone [reference]) as fixed effects and subject as a random effect. A similar inferential analysis was performed for Part B, but fruquintinib with rifampin was the test group. […]

[3] = both sexes, human, oral, fruquintinib 5 mg + itraconazole 200 mg
[4] = both sexes, human, oral, fruquintinib alone 5 mg
[5] = fruquintinib 5 mg + itraconazole 200 mg
[6] = both sexes, human, oral, fruquintinib 5 mg + rifampin 600 mg, n = 13
[7] = both sexes, human, oral, fruquintinib alone 5 mg, n = 13
[8] = fruquintinib 5 mg + rifampin 600 mg, n = 13
[9] = fruquintinib alone 5 mg, n = 13

- AUC(0-inf) [1, 3]: 6460 ng·h/mL
- AUC(0-t) [1, 3]: 6040 ng·h/mL
- Tmax [1, 3]: 4 h
- AUC(0-inf) [1, 4]: 5960 ng·h/mL
- AUC(0-t) [1, 4]: 5730 ng·h/mL
- Tmax [1, 4]: 2 h
- Cmax ([1]; both sexes, human, oral, fruquintinib alone, single 5 mg by mouth, fasted, read-out: Cmax): 133 ng/mL
- half-life ([1]; both sexes, human, oral, 5 mg, fruquintinib alone 5 mg): ~34 h
- half-life [1, 3]: ~41 h
- increase of fruquintinib AUCs ([1]; coadministration with itraconazole versus fruquintinib alone): approximately 10%
- delay of median tmax of fruquintinib ([1]; following coadministration of itraconazole): 2 h
- Cmax [1, 5]: 122 (22.8) ng/mL
- t1/2 [1, 5]: 41.4 (5.96) hour
- t1/2 ([1]; fruquintinib alone 5 mg): 33.9 (6.96) hour
- CL/F (apparent oral clearance) [1, 5]: 13.3 (2.59) mL/min
- CL/F (apparent oral clearance) ([1]; fruquintinib alone 5 mg): 14.9 (4.14) mL/min
- AUC(0-inf) [2, 6]: 2070 ng·h/mL
- AUC(0-t) [2, 6]: 2020 ng·h/mL
- Cmax ([2]; both sexes, human, oral, fruquintinib 5 mg + rifampin 600 mg, n = 13, read-out: Cmax): 108 ng/mL
- AUC(0-inf) [2, 7]: 5890 ng·h/mL
- AUC(0-t) [2, 7]: 5640 ng·h/mL
- half-life ([2]; both sexes, human, oral, 5 mg, fruquintinib alone 5 mg, n = 13): ~34 h
- Tmax ([2]; both sexes, human, oral, 5 mg, fruquintinib alone 5 mg, n = 14): 3.33 h
- half-life [2, 6]: ~14 h
- Tmax [2, 6]: 3 h
- reduction of fruquintinib AUCs (AUC0‐t and AUC0‐inf) ([2]; coadministration with rifampin versus fruquintinib alone): 65%
- t1/2 [2, 8]: 14.0 (3.06) hour
- t1/2 [2, 9]: 33.9 (7.76) hour
- Cmax ([2]; fruquintinib alone, single 5 mg by mouth, fasted, n = 14): 123 (25.5) ng/mL
- CL/F (apparent oral clearance) [2, 8]: 41.9 (7.46) mL/min
- CL/F (apparent oral clearance) [2, 9]: 14.5 (2.22) mL/min
SMILES: CNC(=O)c1c(C)oc2cc(Oc3ncnc4cc(OC)c(OC)cc34)ccc12 [Fruquintinib]
